Experimental findings from the supplement of paper PMC11208160 are described below.
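Note: IS621 bridge recombinase in Escherichia coli cells against a fixed T5 target plasmid.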

The nature of this data set: recombinant UMI read abundance after kanamycin selection (control-corrected) (log10(CPM+1)); higher = more efficient recombination; extreme values may be limits of the assay; sequences stand for … in AGTGCAGAGAAAATCGGCCAGTTTTCTCTGCCTGCAGTCCGCATGCCGTGGGACCCCTTGGGTTCTAACCTGTTGCCTAGATTTATGCAGCGGACTGCCTTTCTCCCAAAGTGATAAACCGG…AGGTTGGTTTCACT; site = the 11-nt donor. An outline of the steps: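 Each donor and donor-binding-loop pair was tracked by a 12-nt UMI on a plasmid carrying a promoterless kanamycin gene. With a second plasmid supplying a fixed target and T7-inducible IS621 bridge recombinase, the pool was plated in Escherichia coli on IPTG (0.07 mM) plus kanamycin or unselected. Sequencing of recombinant UMIs across the donor–target junction gave counts expressed as log10(CPM+1) after replicate averaging and control-derived scaling.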
With “GAAGGGCCATGGACCGGTTTTCCCGGTAATCCGTATTTGCA (site GAATGGCCTTG)”, the “recombinant UMI read abundance (log10)” value is 0.
In the case of “GAAGGTTCATGGACCGGTTTTCCCGGTAATCCGTATTTGTT (site GAAGATTCTAA)” it was 1.32; in that of “GAAGGTTCATGGACCGGTTTTCCCGGTAATCCGTATTTGTT (site GAAGCTTCTAA)”, 0.00355.
In the case of “GAAGGTTCATGGACCGGTTTTCCCGGTAATCCGTATTTGTT (site GAAGGTTCTAA)” it was 2.35.
With “GAAGGTTCATGGACCGGTTTTCCCGGTAATCCGTATTTGTT (site GAAGTTTCTAA)” the figure was 0; with “GAAGTCACATGGACCGGTTTTCCCGGTAATCCGTATTTGGG (site AAAGTCACTCC)”, 0.11.
Consider “GAAGTCACATGGACCGGTTTTCCCGGTAATCCGTATTTGGG (site CAAGTCACTCC)”, for which the “recombinant UMI read abundance (log10)” value amounted to 0.0174.
In the case of “GAAGTCACATGGACCGGTTTTCCCGGTAATCCGTATTTGGG (site GAAGTCACTCC)” it was 0.412; in that of “GAAGTCACATGGACCGGTTTTCCCGGTAATCCGTATTTGGG (site TAAGTCACTCC)”, 0.221.
In the case of “GAAGTGACATGGACCGGTTTTCCCGGTAATCCGTATTTGCG (site GAAGTGACTCG)” it was 2.14.
For “GAATAAGCATGGACCGGTTTTCCCGGTAATCCGTATTTGTG (site GAATAAGCTCA)”, the “recombinant UMI read abundance (log10)” value is 1.99.
In the case of “GAATATCCATGGACCGGTTTTCCCGGTAATCCGTATTTGCT (site GAATATCCTAG)” it was 1.3.
With “GAATATCCATGGACCGGTTTTCCCGGTAATCCGTATTTGCT (site GACTATCCTAG)”, the “recombinant UMI read abundance (log10)” value came to 0.
In the case of “GAATATCCATGGACCGGTTTTCCCGGTAATCCGTATTTGCT (site GAGTATCCTAG)”, the “recombinant UMI read abundance (log10)” value is 0.
With “GAATATCCATGGACCGGTTTTCCCGGTAATCCGTATTTGCT (site GATTATCCTAG)” the figure was 0; with “GAATCATCATGGACCGGTTTTCCCGGTAATCCGTATTTGCT (site CGATCATCTAG)”, 1.88; with “GAATCATCATGGACCGGTTTTCCCGGTAATCCGTATTTGCT (site GAATCATCTAG)”, 1.95.
Regarding “GAATCGTCATGGACCGGTTTTCCCGGTAATCCGTATTTGCA (site GAATCGTCTTG)”, the “recombinant UMI read abundance (log10)” value is 2.71.
Regarding “GAATCTCCATGGACCGGTTTTCCCGGTAATCCGTATTTGAA (site GAATCTCCTTT)”, the “recombinant UMI read abundance (log10)” value is 0.611.
With “GAATGCACATGGACCGGTTTTCCCGGTAATCCGTATTTGTA (site GAATGCACTTA)” the figure was 1.87; with “GAATGCACATGGACCGGTTTTCCCGGTAATCCGTATTTGTA (site GCATGCACTTA)”, 0.691.
With “GAATGCACATGGACCGGTTTTCCCGGTAATCCGTATTTGTA (site GGATGCACTTA)” the figure was 0.585; with “GAATGCACATGGACCGGTTTTCCCGGTAATCCGTATTTGTA (site GTATGCACTTA)”, 0.36; with “GAATGGACATGGACCGGTTTTCCCGGTAATCCGTATTTGAC (site GAATGGACTGT)”, 2.81.
In the case of “GAATGGACATGGACCGGTTTTCCCGGTAATCCGTATTTGAC (site GACTGGACTGT)”, the “recombinant UMI read abundance (log10)” value came to 0.
In the case of “GAATGGACATGGACCGGTTTTCCCGGTAATCCGTATTTGAC (site GAGTGGACTGT)” it was 0; in that of “GAATGGACATGGACCGGTTTTCCCGGTAATCCGTATTTGAC (site GATTGGACTGT)”, 0.743; in that of “GAATGGACATGGACCGGTTTTCCCGGTAATCCGTATTTGCA (site GAATGGACTTG)”, 2.46.
With “GAATGGACATGGACCGGTTTTCCCGGTAATCCGTATTTGCA (site GAATGGCCTTG)” the figure was 0.483.
With “GAATGGACATGGACCGGTTTTCCCGGTAATCCGTATTTGCA (site GAATGGGCTTG)” the figure was 2.41; with “GAATGGACATGGACCGGTTTTCCCGGTAATCCGTATTTGCA (site GAATGGTCTTG)”, 1.59.
Turning to “GAATGGCCATGGACCGGTTTTCCCGGTAATCCGTATTTGAA (site GAATGGCCTTA)”, the “recombinant UMI read abundance (log10)” value was 0.00888.
With “GAATGGCCATGGACCGGTTTTCCCGGTAATCCGTATTTGAA (site GAATGGCCTTC)” the figure was 0.
In the case of “GAATGGCCATGGACCGGTTTTCCCGGTAATCCGTATTTGAA (site GAATGGCCTTG)” it was 0.0104.
